Experimental data as given in patent EP1656933A1, “A medicinal composition comprising L-alanine for non-alcoholic fatty liver disease and/or non-alcoholic steatohepatitis and use therof” (Ajinomoto Co., Inc., priority 2004, dated 2006).

Assays:
[1] = tested on: choline-deficient diet (hereinafter CDD) rat model; assay: Choline-deficient diet (CDD) rat model showing NASH-like pathological change in the liver; format: in vivo, Male Wistar rats
Source text: Male Wistar rats (7 weeks of age, 5 rats per group) received CDD (Dyets Co.) for 4 weeks. […] On the other hand, in the group of 5 rats received CDD mixed with 4% L-alanine for 4 weeks, one rat is normalized in liver weight (10.6g).

[2] = tested on: HFD-induced fatty liver rat model; assay: High-fat diet (HFD)-induced fatty liver rat model, hepatic triglyceride contents; format: in vivo, Male GK rats; conditions: diet mixed with 4% L-alanine for 6 weeks; one rat of 6, in the level of SD group
Protocol: It has been supposed that the increase of the amount of fat intake in the last few decades is one of the causes of the recent increase of the number of patients with NASH. Therefore, the effect of L-alanine on the hepatic triglyceride contents in the high-fat diet (hereinafter HFD)-induced fatty liver rat model. Male GK rats (9 weeks of age, 6 rats per group) received HFD (containing 30% beef tallow) for 6 weeks. Triglyceride contents in the liver tissue was increased to 29.1 to 49.3 mg per gram of liver tissue, compared with those (14.1 to 24.2 mg) in the group fed with standard diet (containing 5% soy-been oil; hereinafter SD). Pioglitazone is a drug, which acts as an insulin-sensitizer for the patients with diabetes. Recent clinical pilot studies raise the possibility of clinical utility of pioglitazone for NASH. […] On the other hand, in the group of 6 rats received […] mixed with 4% L-alanine for 6 weeks, one rat is reduced in the liver triglyceride contents (19.6 mg) in the level of SD group. In addition, weight gain was reported as the main side effect in a pilot clinical study of piogritazone for NASH.

[3] = parameters: species or system Male GK rats; conditions: rat, in vivo
Source text: It has been supposed that the increase of the amount of fat intake in the last few decades is one of the causes of the recent increase of the number of patients with NASH. Therefore, the effect of L-alanine on the hepatic triglyceride contents in the high-fat diet (hereinafter HFD)-induced fatty liver rat model. Male GK rats (9 weeks of age, 6 rats per group) received HFD (containing 30% beef tallow) for 6 weeks.

SMILES: C[C@H](N)C(=O)O [L-alanine]
- liver weight ([1]; CDD mixed with 4% L-alanine for 4 weeks, one rat of 5 (normalized), CDD alone 14.5 to 20.0 g): 10.6 g
- macrovesicular hepatic steatosis / histological fat accumulation in the liver ([1]; CDD mixed with drug for 4 weeks, histological examination, UDCA all of 5 rats, L-alanine the one rat of 5 with normalized liver weight): not recognized
- liver triglyceride contents [2]: 19.6 mg
- Body Weight (g) Post (at 6 weeks) [3]: 331.8 ± 20.5 g
- Body Weight (g) Pre [3]: 219.8 ± 13.0 g

SMILES: CCc1ccc(CCOc2ccc(CC3SC(=O)NC3=O)cc2)nc1 (stereo not drawn) [pioglitazone, reference compound]
- Body Weight (g) Pre [3]: 222.1 ± 9.9 g
